Test results as given in PubChem BioAssay (NCI).
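Tested at 5 concentrations; 48 h exposure; 96-well plates; endpoints linearly interpolated, else capped at highest concentration. Definition used: TGI = concentration required for complete inhibition of growth.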

Columns and labels:
Assay in all cases: DTP human tumour cell line panel, 48 h
COLO 205 colon = test system: COLO 205 colon
HCT-116 colon = test system: HCT-116 colon
HOP-92 NSCLC = test system: HOP-92 NSCLC
KM20L2 colon = test system: KM20L2 colon
M14 melanoma = test system: M14 melanoma
MOLT-4 leukemia = test system: MOLT-4 leukemia
OVCAR-8 ovarian = test system: OVCAR-8 ovarian
SNB-78 CNS = test system: SNB-78 CNS
SR leukemia = test system: SR leukemia
UACC-62 melanoma = test system: UACC-62 melanoma

Measured: TGI

CC(=O)c1ccc(NC(=O)C(=O)C(C(=O)/C=C/c2ccccc2)C2OC(=O)c3ccccc32)cc1 (stereo not given)
> 100 µM: all assays above
